Experimental data published in patent US20220298107A1, “SUBSTITUTED UREA DIHYDROOROTATE DEHYDROGENASE INHIBITORS” (Janssen Biotech, Inc., priority 2019, published 2022).
pEC50: −log10 of the molar value.

Key:
MOLM-13 cells = assay: MOLM-13 Cellular Assay; format: cell-based; details: Homo sapiens, MOLM-13, 72 h, read-out: MOLM-13 Cellular Assay EC50 (nM)
Experimental: MOLM-13 cells were obtained from DSMZ and were maintained in RPMI 1640+Glutamax+25 mM HEPES (Invitrogen, catalog number 72400) supplemented with 10% heat inactivated fetal bovine serum (FBS; Invitrogen, catalog number 16140). The day prior to assay set-up, cells were pelleted, resuspended in fresh media, counted, and cells were plated at 0.4×10^6 cell/mL in a T150 flask. On the day of the assay, cells were pelleted, resuspend in fresh media, counted and seeded at 5,000 cells/well in white opaque 96-well tissue culture treated microplates (Perkin Elmer, catalog number 6005680). Cells were exposed to different concentrations of test compounds at 37° C., 5% CO2 for 72 hours immediately after seeding. Cell viability was acquired on a Perkin Elmer Envision 2104 multilabel reader using the CellTiter-Glo assay (Promega) according to the manufacturer's instructions.

human DHODH = human DHODH (Homo sapiens, UniProt Q02127); assay: biochemical
Chain of human DHODH (Q02127 whole entry): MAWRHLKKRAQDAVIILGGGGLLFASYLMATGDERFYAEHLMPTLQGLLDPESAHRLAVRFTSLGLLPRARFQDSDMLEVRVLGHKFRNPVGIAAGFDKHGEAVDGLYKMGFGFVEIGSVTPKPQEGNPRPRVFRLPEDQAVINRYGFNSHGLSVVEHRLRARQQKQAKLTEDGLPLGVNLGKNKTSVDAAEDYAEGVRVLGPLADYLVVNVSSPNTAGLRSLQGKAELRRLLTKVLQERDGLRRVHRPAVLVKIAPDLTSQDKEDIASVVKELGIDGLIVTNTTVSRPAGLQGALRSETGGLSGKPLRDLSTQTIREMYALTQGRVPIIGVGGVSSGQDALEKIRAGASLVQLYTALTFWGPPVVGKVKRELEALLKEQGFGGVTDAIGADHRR
Experimental: To detect DHODH enzyme activities, dichloroindophenol (DCIP) is added as the final electron acceptor in the assay. DCIP can accept electrons from the reduced coenzyme Q generated in the assay, or from dihydroorotate (DHO) via flavin mononucleotide (FMN) by binding presumably to the ubiquinone pocket. […] The assay buffer contained […], pH 7.5, 150 mM NaCl, 0.5 mM EDTA, and 0.1% Triton X-100 in MilliQ water. Substrate consisting of 20 mM DHO, 5 mM CoQ6, and 1 mM DCIP in assay buffer, initiates the reaction. […] Absorbance measurements were obtained using the BMG Phera Star plate-reading spectrophotomer. Purified human DHODH was purchased from Proteros (cat. No. PR-0044). Chemicals were purchased from Sigma-Aldrich, Teknova, and Avanti Polar Lipids. Liquid handling was performed using Labcyte Echo and Formulatrix Tempest.

CCN(CC(F)F)C(=O)Nc1cc(O[C@@H](C)C(F)(F)F)c(C(=O)Nc2c(C)ccnc2Cl)cc1F [Example 41, (S)-N-(2-Chloro-4-methylpyridin-3-yl)-4-(3-(2,2-difluoroethyl)-3-ethylureido)-5-fluoro-2-((1,1,1-trifluoropropan-2-yl)oxy)benzamide]
EC50 (MOLM-13 cells): 37 nM | pEC50 (human DHODH): 7.77

CCN(CC(F)F)C(=O)Nc1cc(O[C@@H](C)C(F)(F)F)c(C(=O)Nc2c(C)n[nH]c2Cl)cc1F [Example 42, (S)-N-(5-Chloro-3-methyl-1H-pyrazol-4-yl)-4-(3-(2,2-difluoroethyl)-3-ethylureido)-5-fluoro-2-((1,1,1-trifluoropropan-2-yl)oxy)benzamide]
EC50 (MOLM-13 cells): 11 nM | pEC50 (human DHODH): 8.52

CCN(CC(F)F)C(=O)Nc1cc(O[C@@H](C)C(F)(F)F)c(C(=O)Nc2c(C)ccnc2OC)cc1F [Example 43, (S)-4-(3-(2,2-difluoroethyl)-3-ethylureido)-5-fluoro-N-(2-methoxy-4-methylpyridin-3-yl)-2-((1,1,1-trifluoropropan-2-yl)oxy)benzamide]
EC50 (MOLM-13 cells): 30 nM | pEC50 (human DHODH): 7.62

CCN(CC(F)F)C(=O)Nc1cc(O[C@@H](C)C(F)(F)F)c(C(=O)Nc2c(C)cnc(OC)c2Cl)cc1F [Example 44, (S)-N-(3-Chloro-2-methoxy-5-methylpyridin-4-yl)-4-(3-(2,2-difluoroethyl)-3-ethylureido)-5-fluoro-2-((1,1,1-trifluoropropan-2-yl)oxy)benzamide]
EC50 (MOLM-13 cells): 9.6 nM | pEC50 (human DHODH): 8.15

CCN(CC(F)F)C(=O)Nc1cc(O[C@@H](C)C(F)(F)F)c(C(=O)Nc2c(C)cnc(OC)c2C)cc1F [Example 45, (S)-4-(3-(2,2-Difluoroethyl)-3-ethylureido)-5-fluoro-N-(2-methoxy-3,5-dimethylpyridin-4-yl)-2-((1,1,1-trifluoropropan-2-yl)oxy)benzamide]
EC50 (MOLM-13 cells): 63 nM | pEC50 (human DHODH): 7.57
